Source: US7744867B2, “PTPase inhibitors and method of using same” (The Cleveland Clinic Foundation, priority 2001, dated 2010)

Columns and labels:
[1] = target: T1, GST/SHP-1 fusion protein (Mus musculus, UniProt P29351); test: Reversibility of SHP-1 inhibition (washing of bead-bound GST/SHP-1); type: biochemical; settings: preincubated with inhibitor, then washed
T1 construct: made in house
Text: The beads were then washed 3 times in Tris buffer or without washing prior to in vitro PTPase assays.

[2] = test system: TF-1 cells; test: Proliferation of TF-1 cells with GM-CSF and IFNα (MTT); type: cell-based, human; settings: at 50 μg/ml; GM-CSF 5-40 ng/ml
Method: FIG. 7 illustrates that sodium stibogluconate augments the opposite effects of GM-CSF and IFNα on TF-1 cell growth: A. Proliferation of TF-1 cells cultured in the presence of various amounts of GM-CSF and with or without sodium stibogluconate for three days was measured by MTT assays; B. Proliferation of TF-1 cells cultured in the presence of GM-CSF (50 ng/ml) and various amounts of IFNα with or without sodium stibogluconate (50 μg/ml) for three days was measured by MTT assays; C. The results in B shown as percentage inhibition of cell growth; D. Proliferation of TF-1 cells in the presence of GM-CSF (20 ng/ml) and various amounts of sodium stibogluconate for 6 days was measured by MTT assays; E. Proliferation of TF-1 cells in the presence of GM-CSF (20 ng/ml)/IFNα (1,000 u/ml) and various amounts of sodium stibogluconate for 6 days was measured by MTT assays.
The murine hematopoietic cell line Baf3 was maintained in RPMI 1640 medium supplemented with 10% fetal calf serum (FCS) and murine IL-3 (20 units/ml) as described previously. Human myeloid cell line TF-1 was maintained in RPMI 1640 supplemented with 10% FCS and 40 ng/ml of recombinant human GM-CSF as described previously. […] The cell numbers in proliferation assays were determined by an MTT assay or by microscopic cell counting as indicated.

[3] = target: T2, intracellular MKP1 in WM9 cells (Homo sapiens, UniProt P28562); test: PTPase activity of anti-MKP1 immunocomplexes from WM9 cells; type: cell-based; settings: treated 5 minutes
T2 construct: endogenous in cells; host or cells: WM9 human melanoma cells
T2 sequence (P28562 whole entry): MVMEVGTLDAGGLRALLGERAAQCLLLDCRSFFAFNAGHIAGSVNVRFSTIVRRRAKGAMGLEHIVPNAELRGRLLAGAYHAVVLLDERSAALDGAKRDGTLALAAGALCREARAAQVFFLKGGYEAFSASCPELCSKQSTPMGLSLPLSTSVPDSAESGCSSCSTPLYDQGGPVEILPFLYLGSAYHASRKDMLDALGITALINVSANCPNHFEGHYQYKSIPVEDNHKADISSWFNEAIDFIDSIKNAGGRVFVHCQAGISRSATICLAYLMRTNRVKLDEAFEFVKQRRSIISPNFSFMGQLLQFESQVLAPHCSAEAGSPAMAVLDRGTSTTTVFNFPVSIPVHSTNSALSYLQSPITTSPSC
Method: FIG. 6C. Sodium stibogluconate inactivates intracellular PRL-2 in WM9 human melanoma cells. A. Relative PTPase activities of anti-Flag immunocomplexes from WM9 cells transfected with the control vector (V) or Flag-PRL-2 expression construct and then treated with different amounts of sodium stibogluconate for 5 minutes B. Relative amounts of Flag-PRL-2 in the immunocomplexes as determined by SDS-PAGE/Western blotting. C. Relative PTPase activities of anti-MKP1 immunocomplexes from WM9 cells treated with different amounts of sodium stibogluconate for 5 minutes. Relative amounts of MKP1 in the immunocomplexes as determined by SDS-PAGE/Western blotting.
Flag-PRL-2 protein was detected in anti-Flag immunocomplexes from WM9 cells tranfected with an expression construct of Flag-PRL-2 but not in those from vector transfectants expected.

[4] = test system: DS cells (lymphoma); test: Growth inhibition of human tumor cell lines (MTT); type: cell-based; settings: day 3; IFNα 1,000 u/ml
Method: FIG. 8 illustrates growth inhibition of human cell lines of hematopoietic malignancies by sodium stibogluconate and/or IFNα: A and B. Growth of DS and DR cells cultured in the absence or presence of various amounts of sodium stibogluconate and/or IFNα (1,000 u/ml) for 3 days was measured by MTT assays; C. Percentage of growth inhibition of DR cells calculated from data in B; D. Percentage of growth inhibition of DR cells by IFNα (1,000 u/ml) and various amounts of sodium stibogluconate in day 6 cultures measured by MTT assays; E. Percentage of growth inhibition of U266 cells by IFNα (1,000 u/ml) and various amounts of sodium stibogluconate in day 6 cultures as measured by MTT assays.

[5] = test system: WM9 cells (Melanoma); test: Growth inhibition of human tumor cell lines (MTT); type: cell-based
Text: (§1) FIG. 9 illustrates growth inhibition of human cell lines of non-hematopoietic malignancies by sodium stibogluconate and/or IFNα. Percentage of growth inhibition of WM9 (A), DU145 (B), MDA231 (C) and WiT49-N1 (D) in the absence or presence of various amounts of sodium stibogluconate and/or IFNα (1,000 u/ml) in day 6 cultures as measured by MTT assays.
FIG. 10 illustrates sodium stibogluconate augments both IFNα- and IFNβ-induced growth inhibition of WM9 cells. Percentage of growth inhibition of WM9 cells in the absence or presence of various amounts of sodium stibogluconate, IFNα and IFNβ in day 6 cultures as measured by MTT assays. The data illustrates that sodium seems to interact with IFNα and IFNβ in a synergistic manner in growth inhibition of WM9 cells. Data from MTT antiproliferative assays was expressed as percent control growth (PCG) of treated cells, compared to untreated cells (100%). Median effect analysis (inset graphs), similar to isobol analysis, defined drug interaction in the IFNα+sodium stibogluconate and the IFNβ+sodium stibogluconate combinations as synergistic at all doses tested, characterized by a combination index (CI) of less than 1. Additivity is indicated by CI=1, and antagonism occurs when CI>1. Fraction affected (fa)=(100−PCG)/100.
Drug Interaction Analysis. Median effect analysis, which provides the most general form of studying the interactions between drugs, was utilized to analyze the interaction between sodium stibogluconate and IFNα or IFNβ. Since details regarding the mode of IFN and sodium stibogluconate interaction are not fully understood, and whether or not they act in a mutually exclusive fashion, we chose the most general analysis available. Dose response curves were generated for each drug alone, and also the combinations. Median effect plots were generated, which determined m and Dm values for IFN alone, sodium stibogluconate alone, and the combination. The combination index (CI) was determined and plotted vs. fraction affected (FA). Data were analyzed in both modes, mutually exclusive and mutually nonexclusive. […]

[6] = test system: DU145 cells (Prostate cancer); test: Growth inhibition of human tumor cell lines (MTT); type: cell-based
Text: as §1

[7] = test system: MDA231 cells (Breast cancer); test: Growth inhibition of human tumor cell lines (MTT); type: cell-based
Text: as §1

[8] = test system: 5637 cells (Blader carcinoma); test: Growth inhibition of human tumor cell lines; type: cell-based; settings: SS 12.5 μg/ml, IFNα 1,000 u/ml, alone or combined
[9] = test system: Melanomas; settings: melanoma patients; cited from earlier work

T1 sequence (P29351 whole entry, the tested form may be a part): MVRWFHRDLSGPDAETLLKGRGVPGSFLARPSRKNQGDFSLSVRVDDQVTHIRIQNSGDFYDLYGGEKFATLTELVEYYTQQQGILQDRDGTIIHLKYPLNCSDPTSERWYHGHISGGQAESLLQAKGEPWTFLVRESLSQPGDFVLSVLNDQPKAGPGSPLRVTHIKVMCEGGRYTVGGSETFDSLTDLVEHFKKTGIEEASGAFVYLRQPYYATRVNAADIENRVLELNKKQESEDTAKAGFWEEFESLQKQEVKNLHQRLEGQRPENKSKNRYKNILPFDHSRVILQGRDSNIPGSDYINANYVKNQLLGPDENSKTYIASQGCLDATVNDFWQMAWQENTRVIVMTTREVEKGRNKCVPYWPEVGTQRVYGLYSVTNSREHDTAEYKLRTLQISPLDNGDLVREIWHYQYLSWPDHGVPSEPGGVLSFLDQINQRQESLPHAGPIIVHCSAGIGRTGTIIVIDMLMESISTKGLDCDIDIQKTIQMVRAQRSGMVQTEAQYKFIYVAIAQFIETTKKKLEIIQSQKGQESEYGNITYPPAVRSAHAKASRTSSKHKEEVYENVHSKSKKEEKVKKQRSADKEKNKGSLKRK

Compound | reversibility of SHP-1 inhibition [1] | GM-CSF-induced proliferation of TF-1 cells [2] | effect on MKP1 PTPase activity in WM9 cells [3] | activity against DS cells [4] | cell killing as a single agent ([5]; WM9, 50 μg/ml and 100 μg/ml, day 6 culture) | cell killing as a single agent ([6]; 50 μg/ml and 100 μg/ml, day 6 culture) | cell killing as a single agent ([7]; MDA231, 50 μg/ml and 100 μg/ml, day 6 culture) | % of growth inhibition by day 6 (±s.d.) ([5]; WM9, SS 12.5 μg/ml, IFNα 1,000 u/ml, alone or combined) | growth inhibition of WM-9 melanoma cells ([5]; drug at 25-100 μg/ml, agents individually or in combination) | % of growth inhibition by day 6 (±s.d.) ([6]; SS 12.5 μg/ml, IFNα 1,000 u/ml, alone or combined) | % of growth inhibition by day 6 (±s.d.) ([7]; MDA231, SS 12.5 μg/ml, IFNα 1,000 u/ml, alone or combined) | growth inhibition of MDA231 breast cancer cells ([7]; drug at 25 μg/ml, agents individually or in combination) | % of growth inhibition by day 6 (±s.d.) [8] | response rates [9]
O.O.O.O.O.O.O.O.O.O=C([O-])[C@@H]1[O][Sb]2([O-])([O][Sb]34([OH])[O][C@H]([C@H](O)CO)[C@H]([O]3)[C@H](C(=O)[O-])[O]4)[O][C@H]([C@H](O)CO)[C@@H]1[O]2.[Na+].[Na+].[Na+] [sodium stibogluconate] | stable complexes | augmented | no marked effects | modest activity | killed all cells | killed all cells | killed all cells |  |  |  |  |  |  | 
IFNα |  |  |  | almost completely eliminated |  |  |  | 58 (2) % | 58% | 70 (5) % | 79 (2) % | 79% | 28 (17) % | 15%
